Data reported in PMC4412765 (Chemical biology & drug design, 2014).
Where two headings read alike, the source gives them in different places.

Assays:
M. smegmatis = assay: Activity against the M. tuberculosis model M. smegmatis; type: cell-based
cis-DPPS (Rv2361c) = cis-DPPS (Rv2361c) (Mycobacterium tuberculosis, UniProt P9WFF7)
Rv3378c = Rv3378c (Mycobacterium tuberculosis, UniProt P9WJ61)
UPPS = conditions: cited from earlier work
S. aureus = conditions: cited from earlier work

cis-DPPS (Rv2361c), sequence (P9WFF7 whole entry): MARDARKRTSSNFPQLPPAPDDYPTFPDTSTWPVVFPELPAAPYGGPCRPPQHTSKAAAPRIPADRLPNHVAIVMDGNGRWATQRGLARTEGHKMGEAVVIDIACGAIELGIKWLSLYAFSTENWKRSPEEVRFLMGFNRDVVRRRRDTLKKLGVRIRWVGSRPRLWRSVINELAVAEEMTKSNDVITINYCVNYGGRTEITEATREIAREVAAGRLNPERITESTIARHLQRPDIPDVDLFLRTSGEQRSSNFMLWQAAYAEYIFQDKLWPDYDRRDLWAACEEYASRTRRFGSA
Rv3378c, sequence (P9WJ61 whole entry): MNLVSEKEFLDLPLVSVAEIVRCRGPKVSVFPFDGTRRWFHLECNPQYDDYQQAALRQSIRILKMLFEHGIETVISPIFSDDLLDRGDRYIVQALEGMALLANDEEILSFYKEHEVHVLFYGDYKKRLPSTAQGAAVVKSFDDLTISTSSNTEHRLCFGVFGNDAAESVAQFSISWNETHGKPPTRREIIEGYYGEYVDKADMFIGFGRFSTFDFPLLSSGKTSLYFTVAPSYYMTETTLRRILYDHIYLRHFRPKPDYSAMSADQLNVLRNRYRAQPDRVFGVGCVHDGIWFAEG

## O=P(O)(O)C(O)(Cc1cccc(-c2cccc3c2oc2ccccc23)c1)P(=O)(O)O [BPH-629]
M. smegmatis
  activity against M. smegmatis: inactive
cis-DPPS (Rv2361c); read-out: IC50 against DPPS, cis-FPP as substrate
  IC50: 610 nM

## Cl.Cl.O=C(Nc1cccc(C2=NCCN2)c1)c1ccc(-c2ccc(C(=O)Nc3cccc(C4=NCCN4)c3)cc2)cc1 [BPH-1358]
Rv3378c
  activity against Rv3378c: inactive
UPPS
  UPPS inhibition: potent UPPS inhibitor

## C(=C\c1cc2ccc(C3=NCCN3)cc2[nH]1)/c1cc2ccc(C3=NCCN3)cc2[nH]1 [BPH-1417]
cis-DPPS (Rv2361c); read-out: IC50 against DPPS, depending on substrate
  IC50: 500 to 20000 nM
cis-DPPS (Rv2361c); read-out: IC50 against cis-DPPS, substrate not stated
  IC50: 1300 nM
S. aureus
  in vivo activity against S. aureus: potent
